pIC50: −log10 of the molar value.
Assays:
P2Y purinoceptor 1 = P2Y purinoceptor 1 (Homo sapiens, UniProt P47900); assay: Antagonist activity at P2Y1 (unknown origin) expressed in human 1321N1 cells assessed as induction of calcium stimulation by fluo-4 dye based assay; type: functional, cell-based
Rattus norvegicus = assay: Antiplatelet activity in Sprague-Dawley rat platelet rich plasma assessed as inhibition of ADP-induced platelet aggregation at 3 mg/kg, ig after 2 hrs relative to control; type: functional; details: po

Chain of P2Y purinoceptor 1 (P47900 whole entry): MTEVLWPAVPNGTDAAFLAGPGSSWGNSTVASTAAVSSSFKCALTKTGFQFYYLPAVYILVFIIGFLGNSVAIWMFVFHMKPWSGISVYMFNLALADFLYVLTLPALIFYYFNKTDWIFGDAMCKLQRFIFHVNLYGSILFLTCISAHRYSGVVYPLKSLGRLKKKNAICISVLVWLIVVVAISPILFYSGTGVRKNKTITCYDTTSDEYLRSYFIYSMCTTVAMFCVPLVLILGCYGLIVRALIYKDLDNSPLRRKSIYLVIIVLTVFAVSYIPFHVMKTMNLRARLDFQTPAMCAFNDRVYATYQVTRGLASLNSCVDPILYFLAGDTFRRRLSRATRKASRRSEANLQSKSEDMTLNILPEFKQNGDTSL

| Compound | pIC50 (P2Y purinoceptor 1) | inhibition in vivo at 3 mg/kg (Rattus norvegicus) |
| --- | --- | --- |
| Cc1ccc(NC(=O)Nc2ccc(OC(F)(F)F)cc2)c(Oc2ccccc2C(C)(C)C)n1 | 6.68 | 68.9% |
| CC(C)(C)c1ccccc1Oc1ncccc1NC(=O)Nc1ccc(OC(F)(F)F)cc1 |  | 67.4% |
| CC(C)(C)c1ccccc1Oc1ccccc1NC(=O)Nc1ccc(OC(F)(F)F)cc1 | 5.12 |  |
| CC(C)(C)c1ccccc1Oc1ncccc1NC(=O)NC1C2CC3CC(C2)CC1C3 (configuration not stated) | 6.21 | 26.7% |
| CC(C)(C)c1ccccc1Oc1ncccc1NC(=O)Nc1ccc(C(=O)OCc2ccccc2)s1 | 5.14 | 69.4% |

The next lines start with results.

| pIC50 (P2Y purinoceptor 1) | Compound | inhibition in vivo at 3 mg/kg (Rattus norvegicus) |
| --- | --- | --- |
| 4.89 | COC(=O)c1ccc(NC(=O)Nc2cccnc2Oc2ccccc2C(C)(C)C)s1 |  |
| 5.00 | CCCCNC(=O)Nc1cccnc1Oc1ccccc1C(C)(C)C | 22% |
| 5.15 | CC(C)(C)c1ccccc1Oc1ncccc1NC(=O)N[C@H]1CC[C@H](C)CC1 | 57.6% |
| 5.62 | CC(C)(C)c1ccccc1Oc1ncccc1NC(=O)NC1CCCC1 |  |
| 4.90 | CCOC(=O)c1ccc(NC(=O)Nc2cccnc2Oc2ccccc2C(C)(C)C)s1 | 50.6% |
| 6.09 | CC1CCCCC1NC(=O)Nc1cccnc1Oc1ccccc1C(C)(C)C (configuration not stated) |  |

Reference: ChEMBL document CHEMBL4265928, “Design, synthesis, and biological evaluation of 2-(phenoxyaryl)-3-urea derivatives as novel P2Y1 receptor antagonists” (Eur J Med Chem, 2018)
